From US11446287B2, “Compounds and methods for EP300 or CBP modulation and indications therefor” (Opna Immuno-Oncology SA, priority 2019, dated 2022)

Target: T1, Recombinant human CBP containing the bromodomain (CBP-BD (1043-1159)) (Homo sapiens, UniProt Q92793)
T1 construct: Recombinant human CBP bromodomain (CBP-BD (1043-1159)); made in house; host or cells: E. coli BL21-CodonPlus (DE3), modified pET vector
Test: CBP Alphascreen binding assay
Conditions: read-out: CREBBP (CBP) IC50
Procedure, shortened: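 Buffer: 50 mM HEPES pH 7.5, 50 mM NaCl, 0.01% BSA, 0.01% Triton X-100, 2 mM DTT. The signal was normalised to plate controls and fitted with a four-parameter curve to give IC50.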

T1 sequence (Q92793 1081-1197): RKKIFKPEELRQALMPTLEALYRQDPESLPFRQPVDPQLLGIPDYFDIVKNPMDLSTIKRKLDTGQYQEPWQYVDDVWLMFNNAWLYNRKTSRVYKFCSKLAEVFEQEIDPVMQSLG

SMILES | IC50
Cc1noc(C)c1-c1cnc2c(c1)c(-c1ccc(C(=O)O)cc1OC(F)(F)F)cn2-c1cnn(C)c1 [P-0318, 4-(5-(3,5-dimethylisoxazol-4-yl)-1-(1-methyl-1H-pyrazol-4-yl)-1H-pyrrolo[2,3-b]pyridin-3-yl)-3-(trifluoromethoxy)benzoic acid] | 0.1 to 1000 nM
CCOc1cc(C(=O)O)c(F)cc1-c1cn([C@H]2CCOC2)c2ncc(-c3c(C)noc3C)cc12 [P-0360, (S)-4-(5-(3,5-dimethylisoxazol-4-yl)-1-(tetrahydrofuran-3-yl)-1H-pyrrolo[2,3-b]pyridin-3-yl)-5-ethoxy-2-fluorobenzoic acid] | 0.1 to 1000 nM
Cc1noc(C)c1-c1cnc2c(c1)c(-c1ccc(C(=O)O)cc1OC1CC1)cn2-c1ncccc1C#N [P-0337, 4-(1-(3-cyanopyridin-2-yl)-5-(3,5-dimethylisoxazol-4-yl)-1H-pyrrolo[2,3-b]pyridin-3-yl)-3-cyclopropoxybenzoic acid] | 0.1 to 1000 nM
Cc1noc(C)c1-c1cnc2c(c1)c(-c1ccc(C(=O)O)cc1OC(F)(F)F)cn2C1(C)CCOCC1 [P-0385, 4-(5-(3,5-dimethylisoxazol-4-yl)-1-(4-methyltetrahydro-2H-pyran-4-yl)-1H-pyrrolo[2,3-b]pyridin-3-yl)-3-(trifluoromethoxy)benzoic acid] | 0.1 to 1000 nM
Cc1noc(C)c1-c1cnc2c(c1)c(-c1ccc(C(=O)O)cc1OC(F)(F)F)cn2C1(CC#N)CCC1 [P-0335, 4-(1-(1-(cyanomethyl)cyclobutyl)-5-(3,5-dimethylisoxazol-4-yl)-1H-pyrrolo[2,3-b]pyridin-3-yl)-3-(trifluoromethoxy)benzoic acid] | 0.1 to 1000 nM
Cc1noc(C)c1-c1ccc2c(c1)c(-c1ccc(C(=O)O)cc1OC(F)(F)F)cn2C(C1CC1)C1CC1 [P-0344, 4-(1-(dicyclopropylmethyl)-5-(3,5-dimethylisoxazol-4-yl)-1H-indol-3-yl)-3-(trifluoromethoxy)benzoic acid] | 0.1 to 1000 nM
CCOc1cc(C(=O)O)nc(OCC)c1-c1cn(C2CCOCC2)c2ncc(-c3c(C)noc3C)cc12 [P-0373, 5-(5-(3,5-dimethylisoxazol-4-yl)-1-(tetrahydro-2H-pyran-4-yl)-1H-pyrrolo[2,3-b]pyridin-3-yl)-4,6-diethoxypicolinic acid] | 0.1 to 1000 nM
Cc1noc(C)c1-c1cnc2c(c1)c(-c1ccc(C(=O)O)cc1OC(F)(F)F)cn2-c1cnc(N)nc1 [P-0320, 4-(1-(2-aminopyrimidin-5-yl)-5-(3,5-dimethylisoxazol-4-yl)-1H-pyrrolo[2,3-b]pyridin-3-yl)-3-(trifluoromethoxy)benzoic acid] | 0.1 to 1000 nM
CCOc1nc(C(=O)O)ccc1-c1cn(C2CCOCC2)c2ncc(-c3c(C)noc3C)cc12 [P-0376, 5-(5-(3,5-dimethylisoxazol-4-yl)-1-(tetrahydro-2H-pyran-4-yl)-1H-pyrrolo[2,3-b]pyridin-3-yl)-6-ethoxypicolinic acid] | 0.1 to 1000 nM
Cc1noc(C)c1-c1cnc2c(c1)c(-c1c(Cl)cc(C(=O)O)cc1OC1CCC1)cn2C(C1CC1)C1CC1 [P-0356, 3-chloro-5-cyclobutoxy-4-(1-(dicyclopropylmethyl)-5-(3,5-dimethylisoxazol-4-yl)-1H-pyrrolo[2,3-b]pyridin-3-yl)benzoic acid] | 0.1 to 1000 nM
CCOc1cc(C(=O)O)c(F)cc1-c1cn(-c2ccc(F)cc2F)c2ncc(-c3c(C)noc3C)cc12 [P-0330, 4-(1-(2,4-difluorophenyl)-5-(3,5-dimethylisoxazol-4-yl)-1H-pyrrolo[2,3-b]pyridin-3-yl)-5-ethoxy-2-fluorobenzoic acid] | 0.1 to 1000 nM
CCn1cc(-n2cc(-c3ccc(C(=O)O)cc3OCC(F)F)c3cc(-c4c(C)noc4C)cnc32)c(C)n1 [P-0326, 3-(2,2-difluoroethoxy)-4-(5-(3,5-dimethylisoxazol-4-yl)-1-(1-ethyl-3-methyl-1H-pyrazol-4-yl)-1H-pyrrolo[2,3-b]pyridin-3-yl)benzoic acid] | 0.1 to 1000 nM
Cc1noc(C)c1-c1cnc2c(c1)c(-c1ccc(C3(C(=O)O)CC3)cc1)cn2C(c1ccccn1)C1CCCC1 (stereo not shown) [P-0033, 1-(4-(1-(cyclopentyl(pyridin-2-yl)methyl)-5-(3,5-dimethylisoxazol-4-yl)-1H-pyrrolo[2,3-b]pyridin-3-yl)phenyl)cyclopropane-1-carboxylic acid] | 0.1 to 1000 nM
Cc1noc(C)c1-c1cnc2c(c1)c(-c1c(Cl)cc(C(=O)O)cc1OCC(F)F)cn2-c1cnn(C(F)F)c1C [P-0352, 3-chloro-5-(2,2-difluoroethoxy)-4-(1-(1-(difluoromethyl)-5-methyl-1H-pyrazol-4-yl)-5-(3,5-dimethylisoxazol-4-yl)-1H-pyrrolo[2,3-b]pyridin-3-yl)benzoic acid] | 0.1 to 1000 nM
Cc1noc(C)c1-c1cnc2c(c1)c(-c1ccc(C(=O)O)cc1OCC(F)F)cn2C(C1CC1)C1CC1 [P-0338, 4-(1-(dicyclopropylmethyl)-5-(3,5-dimethylisoxazol-4-yl)-1H-pyrrolo[2,3-b]pyridin-3-yl)-3-(2,2-difluoroethoxy)benzoic acid] | 0.1 to 1000 nM
COc1cc(C(=O)O)ncc1-c1cn(C(C2CC2)C2CC2)c2ncc(-c3c(C)noc3C)cc12 [P-0339, 5-(1-(dicyclopropylmethyl)-5-(3,5-dimethylisoxazol-4-yl)-1H-pyrrolo[2,3-b]pyridin-3-yl)-4-methoxypicolinic acid] | 0.1 to 1000 nM
Cc1nn(C(F)F)cc1-n1cc(-c2ccc(C(=O)O)cc2OC2CCC2)c2cc(-c3c(C)noc3C)cnc21 [P-0351, 3-cyclobutoxy-4-(1-(1-(difluoromethyl)-3-methyl-1H-pyrazol-4-yl)-5-(3,5-dimethylisoxazol-4-yl)-1H-pyrrolo[2,3-b]pyridin-3-yl)benzoic acid] | 0.1 to 1000 nM
COc1nc(C(=O)O)ccc1-c1cn(C2CCOCC2)c2ncc(-c3c(C)noc3C)cc12 [P-0368, 5-(5-(3,5-dimethylisoxazol-4-yl)-1-(tetrahydro-2H-pyran-4-yl)-1H-pyrrolo[2,3-b]pyridin-3-yl)-6-methoxypicolinic acid] | 0.1 to 1000 nM
Cc1noc(C)c1-c1cnc2c(c1)c(-c1c(Cl)cc(C(=O)O)cc1OC1CC1)cn2C(C1CC1)C1CC1 [P-0363, 3-chloro-5-cyclopropoxy-4-(1-(dicyclopropylmethyl)-5-(3,5-dimethylisoxazol-4-yl)-1H-pyrrolo[2,3-b]pyridin-3-yl)benzoic acid] | 0.1 to 1000 nM
Cc1noc(C)c1-c1cnc2c(c1)c(-c1c(Cl)cc(C(=O)O)cc1OC1CCC1)cn2[C@H]1CCOC1 [P-0361, (S)-3-chloro-5-cyclobutoxy-4-(5-(3,5-dimethylisoxazol-4-yl)-1-(tetrahydrofuran-3-yl)-1H-pyrrolo[2,3-b]pyridin-3-yl)benzoic acid] | 0.1 to 1000 nM
Cc1noc(C)c1-c1cnc2c(c1)c(-c1ccc(C(=O)O)cc1OC1CCC1)cn2-c1cnc(N2CCC2)nc1 [P-0347, 4-(1-(2-(azetidin-1-yl)pyrimidin-5-yl)-5-(3,5-dimethylisoxazol-4-yl)-1H-pyrrolo[2,3-b]pyridin-3-yl)-3-cyclobutoxybenzoic acid] | 0.1 to 1000 nM
CCOc1cc(C(=O)O)nc(OCC)c1-c1cn(-c2ccc(F)cc2F)c2ncc(-c3c(C)noc3C)cc12 [P-0329, 5-(1-(2,4-difluorophenyl)-5-(3,5-dimethylisoxazol-4-yl)-1H-pyrrolo[2,3-b]pyridin-3-yl)-4,6-diethoxypicolinic acid] | 0.1 to 1000 nM
Cc1cc(C(=O)O)cc(OCC(F)F)c1-c1cn(C2CCOCC2)c2ncc(-c3c(C)noc3C)cc12 [P-0367, 3-(2,2-difluoroethoxy)-4-(5-(3,5-dimethylisoxazol-4-yl)-1-(tetrahydro-2H-pyran-4-yl)-1H-pyrrolo[2,3-b]pyridin-3-yl)-5-methylbenzoic acid] | 0.1 to 1000 nM
Cc1noc(C)c1-c1cnc2c(c1)c(-c1ccc(C(=O)O)cc1OCC(F)F)cn2[C@H]1CCOC1 [P-0325, (S)-3-(2,2-difluoroethoxy)-4-(5-(3,5-dimethylisoxazol-4-yl)-1-(tetrahydrofuran-3-yl)-1H-pyrrolo[2,3-b]pyridin-3-yl)benzoic acid] | 0.1 to 1000 nM
Cc1noc(C)c1-c1cnc2c(c1)c(-c1ccc(C(=O)O)cc1OC1CC1)cn2C1CCOCC1 [P-0379, 3-cyclopropoxy-4-(5-(3,5-dimethylisoxazol-4-yl)-1-(tetrahydro-2H-pyran-4-yl)-1H-pyrrolo[2,3-b]pyridin-3-yl)benzoic acid] | 0.1 to 1000 nM
Cc1noc(C)c1-c1cnc2c(c1)c(-c1ccc(C(=O)O)cc1OC1CCC1)cn2C1CCOCC1 [P-0341, 3-cyclobutoxy-4-(5-(3,5-dimethylisoxazol-4-yl)-1-(tetrahydro-2H-pyran-4-yl)-1H-pyrrolo[2,3-b]pyridin-3-yl)benzoic acid] | 0.1 to 1000 nM
Cc1noc(C)c1-c1cnc2c(c1)c(-c1c(Cl)cc(C(=O)O)cc1OCC(F)F)cn2C(C1CC1)C1CC1 [P-0340, 3-chloro-4-(1-(dicyclopropylmethyl)-5-(3,5-dimethylisoxazol-4-yl)-1H-pyrrolo[2,3-b]pyridin-3-yl)-5-(2,2-difluoroethoxy)benzoic acid] | 0.1 to 1000 nM
COc1cc(C(=O)O)ncc1-c1cn(C2CCOCC2)c2ncc(-c3c(C)noc3C)cc12 [P-0362, 5-(5-(3,5-dimethylisoxazol-4-yl)-1-(tetrahydro-2H-pyran-4-yl)-1H-pyrrolo[2,3-b]pyridin-3-yl)-4-methoxypicolinic acid] | 0.1 to 1000 nM
